# Source: patent US7576188B2, “Antitumoral treatments” (Pharma Mar, S.A.U., priority 2004, dated 2009)
# Read-outs that look alike come from different tables or passages of the source. Numbered stars: 1 amine (or outer) side, 2 acyl side, 3 side chain; on linkers, the order of the positions; unused ones are H or OH. Bridge positions count the residues as written; N and C are the ends. Square brackets hold non-standard residues; d marks the D form. Peptide text beside a SMILES is read from it. * marks the point of attachment. X1 = CC[C@H](C)[C@@H](N[*:1])[C@@H](O)CC(=O)O[C@H](C(=O)[C@H](C)C(=O)[*:2])C(C)C; NMeY = CN[C@@H](Cc1ccc(O)cc1)C(=O)O; dNMeL = CN[C@H](CC(C)C)C(=O)O; Pyruvoyl = CC(=O)C(=O)*
# Columns and labels:
# CCRF-CEM cells = experiment: XTT/MTS cytotoxicity, single agents and combinations, CCRF-CEM; conditions: for Viability (% of control): single agent at its IC50 dose
# Experimental: (§3) Cell viability is measured by XTT assay in an automated plate reader.
# (§4) All the citotoxicity studies were performed by using XTT or MTS.
# (§5) Data was obtained after cell incubation for 96 hours and using XTT asay. The results represent means of three different experiments.
# K562 cells [1] = experiment: XTT/MTS cytotoxicity, single agents and combinations, K562; conditions: for Viability (% of control): K562, single agent at its IC50 dose
# Experimental: as §3
# (§6) Chou-Talalay analysis was used to analyze the drug combinations.
# (§7) All the citotoxicity studies were performed by using XTT or MTS. We first determined the IC50 dose of these drugs in SKI-DLCL, CCRF-CEM and K562 cell lines. We investigated drug combinations using IC50(Aplidine):IC50(DrugX) fixed ratio.
# SKI-DLCL cells [2] = conditions: for IC50: 96 hours
# Experimental: as §3, §4, §5
# CEM-T leukemic cells = experiment: In vivo antitumor effect in SCID mice xenograft model; conditions: AraC alone at 50 mg/kg, intra-peritoneally
# Experimental: SCID mice were inoculated subcutaneously in the right flank with 10^7 CEM-T leukemic cells. They were observed twice weekly for tumor formation at the site of inoculation. After establishment of palpable tumor, alidine was injected as single agent and in combination with several doses of AraC to determine the antitumor effect. Mice were randomized to receive alidine alone at doses of 0.75 mg/kg and 1 mg/kg, AraC alone at 50 mg/kg, or combination of Aplidine and AraC for all dose combinations. […] All drugs were administered intra-peritoneally, and tumor size was compared to a control group of mice not receiving any treatment and for combination groups, compared to tumor sizes with single agent treatment.
# [3] = system: K562, CEM and SKI-DLCL cell lines; experiment: Combination of IC20 aplidine with a dose range of additional drug (Table 1); type: cell-based
# Experimental: Drug combination studies were carried out on established cell lines rather than primary cells. We studied three cell lines, viz. K562 as a model for acute myeloid leukemia, CEM representing acute lymphocytic leukemia and SKI-DLCL representing diffuse large cell lymphoma. Combination studies with IC20 and IC 50 dose of aplidine with a dose range of methotrexate, cytosine arabinoside and doxorubicin were tested to determine if aplidine could potentiate the effect of these drugs.
# SKI-DLCL cells [4] = experiment: cells; conditions: 96 h
# Experimental: as §3, §4, §5
# [5] = solubilised, heat and light stress; cited from earlier work
# [6] = system: AML and ALL samples from pediatric patients; conditions: de novo or relapsed ALL and AML; cited from earlier work
# ALL-MOLT4 cells = conditions: cited from earlier work
# [7] = Determination of maximum tolerated dose in SCID mice; type: in vivo, C.B.-17 scid/scid (SCID) mice; conditions: total dose given in five daily doses
# Excerpt: We have used an in vivo model of human lymphoma in SCID mice for this purpose. Specifically, we have used CCRF-CEMS cells and CB.17 scid/scid mice. We have experience with this model and have evaluated drug treatments using this xenograft (Lacerda J. F. et al. Blood 85 (10): 2675-2679 (1995)).
# [8] = system: chronic lymphocytic leukemia (CLL) cells; experiment: Viability of fresh primary CLL cells cultured with aplidine; type: cell-based, human
# Experimental: (§1) Aplidine was tested against various primary cells from patients with hematologic malignancies. The cells used were: • fresh cells obtained from six chronic lymphocytic leukemia patients • primary cell from a patient with preB-ALL (DM4)
# (§2) Patient samples were obtained with prior consent and CLL cells were isolated by density gradient centrifugation over histopaque. The media used was RPMI supplemented with 10% autologous serum and L-glutamine. The cultures were incubated with 10 nM aplidine and cell viability was measured days 3, 7,11 and 18 and compared with viability of untreated cells and STI 571 (0.5 mM).
# K562 cells [9] = system: K562 cells
# Experimental: as §3, §6, §7
# preB-ALL (DM4) cells = experiment: Viability of primary preB-ALL (DM4) cells cultured with aplidine; type: cell-based, human
# Experimental: as §1, §2
# [10] = at maximum tolerated doses, clinical Phase I; except for mild lymphopenia; cited from earlier work
# [11] = read-out: IC50 dose, single agent, 96 hours
# [12] = SKI-DLCL, single agent at its IC50 dose
# [13] = read-out: IC50 dose, single agent, SKI-DLCL
# [14] = Homo sapiens, K562, No Aplidine
# [15] = Homo sapiens, K562, with IC20 Aplidine (0.5 nM)
# [16] = Homo sapiens, K562, 96 h, read-out: IC50 dose, single agent, K562, 96 hours
smiles,measurement,setting,value
"Nc1ccn([C@@H]2O[C@H](CO)[C@@H](O)[C@@H]2O)c(=O)n1 [AraC, cytosine arabinoside]",IC50,"CCRF-CEM cells; read-out: IC50 dose of AraC, in combination with IC20 (APL), 96 hours, XTT",0.8 nM
same,IC50,CCRF-CEM cells; [11],10 nM
same,Viability (% of control),CCRF-CEM cells,56.4 % of control
same,Viability (% of control),K562 cells [1],50 % of control
same,IC50,"K562 cells [1]; read-out: IC50 dose, single agent, K562, 96 hours",30 nM
same,Viability (% of control),SKI-DLCL cells [2]; [12],50 % of control
same,IC50,"SKI-DLCL cells [2]; read-out: IC50 dose of AraC, SKI-DLCL, in combination with IC20 (APL), XTT",1.6 nM
same,IC50,SKI-DLCL cells [2]; [13],30 nM
same,in vivo antitumor effect (tumor growth),CEM-T leukemic cells,tumor growth was inhibited but no tumor regression occurred
same,IC50,[3]; No Aplidine,30 nM
same,IC50,[3]; with IC20 Aplidine (0.5 nM),6 nM
"COc1cccc2c1C(=O)c1c(O)c3c(c(O)c1C2=O)C[C@@](O)(C(=O)CO)C[C@@H]3O[C@H]1C[C@H](N)[C@H](O)[C@H](C)O1 [Dox, doxorubicin]",Viability (% of control),SKI-DLCL cells [2]; [12],50 % of control
same,IC50,SKI-DLCL cells [4]; read-out: IC50 dose,5 nM
same,IC50,[3]; [14],18 nM
same,IC50,[3]; [15],1 nM
"CN(Cc1cnc2nc(N)nc(N)c2n1)c1ccc(C(=O)N[C@@H](CCC(=O)O)C(=O)O)cc1 [MTX, methotrexate]",IC50,CCRF-CEM cells; [11],10 nM
same,Viability (% of control),CCRF-CEM cells,50 % of control
same,IC50,[3]; [14],5 nM
same,IC50,[3]; [15],0.5 nM
"C[C@H]1C[C@@H]2[C@H]([C@@H](O)C[C@@]3(C)[C@H]2CC[C@]3(O)C(=O)CO)[C@@]2(C)C=CC(=O)C=C12 [Metpred, methylprednisolone]",Viability (% of control),SKI-DLCL cells [2]; [12],51 % of control
same,IC50,SKI-DLCL cells [4]; read-out: IC50 dose,160 nM
"O=C1c2c(O)ccc(O)c2C(=O)c2c(NCCNCCO)ccc(NCCNCCO)c21 [Mitox, mitoxantrone]",IC50,CCRF-CEM cells; [11],30 nM
same,Viability (% of control),CCRF-CEM cells,56 % of control
same,IC50,K562 cells [1]; [16],7.5 nM
same,Viability (% of control),K562 cells [1],50.7 % of control
same,Viability (% of control),SKI-DLCL cells [2]; [12],50 % of control
same,IC50,SKI-DLCL cells [4]; read-out: IC50 dose,5 nM
"CC[C@]1(O)C[C@@H]2CN(CCc3c([nH]c4ccccc34)[C@@](C(=O)OC)(c3cc4c(cc3OC)N(C)[C@H]3[C@@](O)(C(=O)OC)[C@H](OC(C)=O)[C@]5(CC)C=CCN6CC[C@]43[C@@H]65)C2)C1 [Vinb, vinblastine]",Viability (% of control),SKI-DLCL cells [2]; [12],50 % of control
same,IC50,SKI-DLCL cells [4]; read-out: IC50 dose,4 nM
"CC[C@H](C)[C@H]1NC(=O)[C@@H](NC(=O)[C@@H](CC(C)C)N(C)C(=O)[C@@H]2CCCN2C(=O)C(C)=O)[C@@H](C)OC(=O)[C@H](Cc2ccc(OC)cc2)N(C)C(=O)[C@@H]2CCCN2C(=O)[C@H](CC(C)C)NC(=O)[C@@H](C)C(=O)[C@H](C(C)C)OC(=O)C[C@@H]1O [aplidine, Dehydrodidemnin B] (Pyruvoyl-P[dNMeL]T[X1]LP[NMeY](Me); ester 3-C)",IC50,CCRF-CEM cells; [11],0.5 nM
same,degradation under stress testing,[5],substantial degradation
same,IC50,K562 cells [1]; [16],0.5 to 1 nM
same,IC50,"K562 cells [1]; read-out: IC50 dose, single agent, K562, 96 hours, listed as APL",1 nM
same,concentration with in vitro cytotoxic activity,[6],5 nM
same,VEGF secretion,ALL-MOLT4 cells,block VEGF secretion
same,maximum dose that can be tolerated (MTD),[7],1 mg/kg/week
same,growth of CLL cells in culture,[8]; FIG. 1,inhibits growth
same,IC50,"[8]; Homo sapiens, CLL cell, 264 h, primary CLL samples, 11 day exposure",10 nM
same,Viability (% of control),SKI-DLCL cells [2],50 % of control
same,IC50,SKI-DLCL cells [2]; [13],0.5 nM
same,IC50,"SKI-DLCL cells [4]; read-out: IC50 dose, single agent, SKI-DLCL, 96 hours",0.5 to 1 nM
same,Viability (% of control),K562 cells [9],50 % of control
same,inhibition of preB-ALL cells in culture,preB-ALL (DM4) cells; FIG. 2,potent inhibitor
same,IC50,"preB-ALL (DM4) cells; Homo sapiens, 72 h, DM4 line, 3 day exposure",10 nM
same,myelotoxicity,[10],not myelotoxic
